Measured values published in patent US11473055B2, “Virus-free cell lines and methods for obtaining same” (Glycobac, LLC, priority 2015, dated 2022).

What was measured:
Sf-rhabdovirus [1] = experiment: Sf-rhabdovirus RT-PCR/nested PCR of single Sf9 cell subclones isolated by limiting dilution and treated with antiviral drugs; format: cell-based, Spodoptera frugiperda; conditions: single Sf9 cell subclone, 10 μg/ml, about a month (FIG. 2B)
Description: Example 3. Exemplary method for obtaining an established Sf cell line characterized by a lack of virus. […] This exemplary embodiment comprised isolating single Sf9 cells by limiting dilution, then treating the isolated cell subclones with antiviral drugs. […] The cells were cultured for about a month with ad hoc amplification to produce progressively larger cultures and, after achieving the 25 cm^2 flask level, samples were tested for Sf-rhabdovirus contamination by PCR, as described in Example 4. A clone lacking Sf-rhabdovirus contamination (FIG. 2B) was transferred to media lacking antiviral drugs, designated Sf-RVN passage zero (PO) and, at P2, transferred to a shake-flask culture in serum-free ESF 921 medium and subsequently maintained in this culture medium and format.
Example 4. Sf-rhabdovirus-specific Reverse Transcription-PCR (RT-PCR)/nested PCR. […] One μL of each primary PCR (RT-PCR) was then used as the template for secondary PCR's (RT-PCR/nested PCR) under the same conditions, except the primers were nested Sf-rhabdovirus-specific primers Mono-1i (SEQ ID NO: 7) and Mono-2i (SEQ ID NO: 8).

Sf-rhabdovirus [2] = tested on: Sf-rhabdovirus
Tn-nodavirus = Tn-nodavirus RT-PCR/nested PCR of single TN-368 cell subclones treated with ribavirin; format: cell-based, Trichoplusia ni; conditions: single TN-368 cell subclone, 200 μg/mL, about a month (FIG. 14)
Description: Example 15. Exemplary method for obtaining an established T. ni cell line that lacks virus. After discovering polyclonal TN-368 cell cultures treated with antiviral drug cocktails remained Tn-nodavirus-positive, we employed a disclosed method for obtaining a virus-free cell line. […] The first culture composition was cultured for about a month with ad hoc amplification to produce progressively larger cultures and, after achieving the 25 cm^2 flask level, samples were tested for Tn-nodavirus by RT-PCR, followed by nested PCR, as described in Example 16. […] The clone, designated Tn-NVN passage zero (PO), was adapted to serum-free ESF 921 medium and grown in suspension. The Tn-NVN cell line was subsequently maintained in this second culture composition and growth format.

Row | Structure (SMILES) | Sf-rhabdovirus RNA by RT-PCR followed by nested PCR (Sf-rhabdovirus [1]) | Sf-rhabdovirus RNA by RT-PCR (Sf-rhabdovirus [2]; polyclonal Sf9 cells, 100 μg/ml, about a month, still in presence of drug (FIG. 1A)) | Sf-rhabdovirus RNA by RT-PCR/nested PCR after transfer to drug-free medium (Sf-rhabdovirus [2]; ribavirin-treated Sf9 cells transferred to culture medium lacking antiviral drugs (FIG. 1B)) | Tn-nodavirus RNA by RT-PCR followed by nested PCR (Tn-nodavirus)
1 | O=c1cnn([C@@H]2O[C@H](CO)[C@@H](O)[C@H]2O)c(=O)[nH]1 [6-azauridine] | negative for Sf-rhabdovirus contamination | – | – | –
2 | NC(=O)c1ncn([C@@H]2O[C@H](CO)[C@@H](O)[C@H]2O)n1 [ribavirin] | – | no RT-PCR-detectable Sf-rhabdovirus | reverted to the Sf-rhabdovirus-positive phenotype | lacking Tn-nodavirus
